Series [1] concerns the target T1, human 5-HT7R (Homo sapiens, UniProt P34969).
T1 construct: expressed in transfected cells; host or cells: HEK293
The series can be described thus: Radioligand binding assay, 5-HT7R ([3H]-5-CT). Conditions: HEK293 cells stably expressing human 5-HT7R. Here is the method:
(§1) Affinity for serotonin 5-HT2A, 5-HT7 and dopamine D2 receptors (D2R) as protein off-targets was evaluated in the radioligand binding assays. In CHO-K1 cells, it was stably expressed human 5-HT2AR, whereas human 5-HT7R and D2R were stably expressed in HEK293 cells. […] A particularly weak affinity towards this receptor was shown through compounds of series 1 (compounds 1–7) and series 2 (compounds 8–13). […]. Radioligand binding assays were used to determine the affinity of the synthesized compounds for human serotonin 5-HT6R, 5-HT2AR, 5-HT7R and dopamine D2R, which were stably expressed in HEK293 cells or CHOk1 cells (5-HT2AR). This was done as described previously.

Series [2] addresses T2, human 5-HT2AR (Homo sapiens, UniProt P28223).
T2 construct: expressed in transfected cells; host or cells: CHO-K1
The series can be described thus: Radioligand binding assay, 5-HT2AR ([3H]-ketanserin). Conditions: CHO-K1 cells stably expressing human 5-HT2AR. Here is the method:
as §1

The target in series [3] is T3, human 5-HT6R (Homo sapiens, UniProt P50406).
T3 construct: expressed in transfected cells; host or cells: HEK293
The series can be described thus: Radioligand binding assay, 5-HT6R ([3H]-LSD). The settings on record: for Ki: [3H]-LSD, HEK293 cells stably expressing human 5-HT6R, average of at least two independent experiments; for decrease in affinity for 5-HT6R compared to MST4: ratio of Ki values vs MST4 (Ki = 11 nM). The procedure:
The affinity of compounds (1–25) for 5-HT6R was evaluated in the radioligand binding assay in HEK293 cells stably expressing human 5-HT6R. [^3H]-LSD as a radioligand was used. […] All results are collected in Table 1, Table 2 and Table 3.
Radioligand binding assays were used to determine the affinity of the synthesized compounds for human serotonin 5-HT6R, 5-HT2AR, 5-HT7R and dopamine D2R, which were stably expressed in HEK293 cells or CHOk1 cells (5-HT2AR). This was done as described previously.

The target in series [4] is T4, human D2R (Homo sapiens, UniProt P14416).
T4 construct: expressed in transfected cells; host or cells: HEK293
The series can be described thus: Radioligand binding assay, D2R ([3H]-raclopride). The settings on record: HEK293 cells stably expressing human D2R. Here is the method:
as §1

Counter-ions that a name gives are not always drawn.

T4 sequence (P14416 whole entry): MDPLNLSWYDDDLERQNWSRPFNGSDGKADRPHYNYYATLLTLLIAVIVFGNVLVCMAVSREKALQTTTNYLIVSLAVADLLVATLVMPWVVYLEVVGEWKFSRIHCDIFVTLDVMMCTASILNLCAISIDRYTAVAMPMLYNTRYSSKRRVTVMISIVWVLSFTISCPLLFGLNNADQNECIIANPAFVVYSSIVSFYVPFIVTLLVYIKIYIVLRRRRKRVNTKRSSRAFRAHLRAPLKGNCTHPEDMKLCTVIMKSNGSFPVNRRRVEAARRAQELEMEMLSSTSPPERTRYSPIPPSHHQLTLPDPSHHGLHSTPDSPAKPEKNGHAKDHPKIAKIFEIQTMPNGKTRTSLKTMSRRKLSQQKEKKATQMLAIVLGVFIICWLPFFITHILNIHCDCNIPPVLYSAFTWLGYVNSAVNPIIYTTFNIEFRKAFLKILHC
T1 sequence (P34969 whole entry): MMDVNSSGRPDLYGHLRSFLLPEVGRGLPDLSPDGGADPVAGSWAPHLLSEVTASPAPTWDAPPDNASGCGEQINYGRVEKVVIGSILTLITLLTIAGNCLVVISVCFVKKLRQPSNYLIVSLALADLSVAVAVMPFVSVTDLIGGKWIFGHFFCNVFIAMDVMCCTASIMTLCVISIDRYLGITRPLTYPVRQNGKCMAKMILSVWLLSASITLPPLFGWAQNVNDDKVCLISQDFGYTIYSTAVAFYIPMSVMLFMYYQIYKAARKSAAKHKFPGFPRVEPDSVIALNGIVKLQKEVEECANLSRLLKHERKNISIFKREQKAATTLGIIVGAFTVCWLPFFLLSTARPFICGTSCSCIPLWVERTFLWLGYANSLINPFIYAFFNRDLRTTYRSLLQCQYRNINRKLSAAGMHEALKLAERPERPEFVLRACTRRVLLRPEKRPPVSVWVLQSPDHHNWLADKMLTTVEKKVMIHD
T3 sequence (P50406 whole entry): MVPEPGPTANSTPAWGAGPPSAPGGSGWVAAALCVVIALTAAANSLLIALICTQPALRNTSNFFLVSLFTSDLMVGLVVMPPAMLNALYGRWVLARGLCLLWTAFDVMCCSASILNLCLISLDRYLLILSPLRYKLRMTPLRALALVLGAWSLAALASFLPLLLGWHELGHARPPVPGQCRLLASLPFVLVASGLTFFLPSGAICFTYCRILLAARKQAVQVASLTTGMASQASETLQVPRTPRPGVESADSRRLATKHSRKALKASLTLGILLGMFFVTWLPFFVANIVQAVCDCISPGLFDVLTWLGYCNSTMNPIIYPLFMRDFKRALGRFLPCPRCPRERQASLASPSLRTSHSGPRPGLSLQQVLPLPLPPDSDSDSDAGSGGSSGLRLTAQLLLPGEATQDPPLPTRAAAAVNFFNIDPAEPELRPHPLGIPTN
T2 sequence (P28223 whole entry): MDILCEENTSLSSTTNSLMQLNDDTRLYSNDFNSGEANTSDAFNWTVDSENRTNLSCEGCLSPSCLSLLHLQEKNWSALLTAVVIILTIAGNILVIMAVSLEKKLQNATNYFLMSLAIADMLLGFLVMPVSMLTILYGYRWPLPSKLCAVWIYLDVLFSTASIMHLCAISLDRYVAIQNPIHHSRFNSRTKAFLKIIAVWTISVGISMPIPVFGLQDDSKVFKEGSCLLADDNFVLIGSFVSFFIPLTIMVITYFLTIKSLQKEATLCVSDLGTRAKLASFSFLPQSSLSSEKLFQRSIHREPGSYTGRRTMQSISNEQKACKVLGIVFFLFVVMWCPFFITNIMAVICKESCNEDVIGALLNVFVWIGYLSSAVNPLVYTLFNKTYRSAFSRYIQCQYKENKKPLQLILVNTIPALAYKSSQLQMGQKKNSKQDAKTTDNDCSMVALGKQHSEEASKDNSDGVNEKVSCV

Take `CC(C)c1ccc(OCCCc2nc(N)nc(N3CCN(C)CC3)n2)cc1` [Compound 16, 4-(3-(4-Isopropylphenoxy)propyl)-6-(4-methylpiperazin-1-yl)-1,3,5-triazin-2-amine]: the melting point (as a rule, the temperature, or range, at which the solid turns liquid) was 92 °C. Moreover, affinity in series [1] was put at a Ki of 5120 nM. In addition, affinity in series [2] was put at a Ki of 1170 nM. Besides, the Ki (usually a measure of affinity in units of concentration, obtained from inhibition or displacement) in series [3] was found to be 1110 nM. The molecule also registered a Ki in series [4] of 704 nM.
The like results for `Cc1ccc(C(C)C)c(OCCCc2nc(N)nc(N3CCN(C)CC3)n2)c1` [Compound 14, 4-(3-(2-Isopropyl-5-methylphenoxy)propyl)-6-(4-methylpiperazin-1-yl)-1,3,5-triazin-2-amine] were, in that order, 77 °C, 6660 nM, 1690 nM, 412 nM and 1590 nM.
`Cc1cccc(OCc2nc(N)nc(N3CCN(C)CC3)n2)c1` [Compound 1]: the “decrease in affinity for 5-HT6R compared to MST4” value in series [3] was determined as 19 fold.
For `Cc1cccc(C(C)(C)C)c1OCc1nc(N)nc(N2CCN(C)CC2)n1` [Compound 10, 4-((2-(tert-Butyl)-6-methylphenoxy)methyl)-6-(4-methylpiperazin-1-yl)-1,3,5-triazin-2-amine], the melting point is 177 to 179 °C (dec.). This molecule returned a Ki in series [1] of 16600 nM. Besides, the inhibition constant (Ki) in series [3] is 236 nM.
`Cc1ccc(C(C)C)c(OCCCCc2nc(N)nc(N3CCN(C)CC3)n2)c1.Cl` [Compound 19, 4-(4-(2-Isopropyl-5-methylphenoxy)butyl)-6-(4-methylpiperazin-1-yl)-1,3,5-triazin-2-amine hydrochloride] displayed a melting point of 239 °C. Also, in series [1], the inhibition constant Ki was 638 nM. Further, in series [2], the inhibitory constant (Ki) stood at 687 nM. The molecule further showed a Ki in series [3] of 142 nM. The molecule further had a Ki in series [4] of 3200 nM.
As to `Cc1ccc(OCc2nc(N)nc(N3CCN(C)CC3)n2)c(C(C)(C)C)c1` [Compound 9, 4-((2-(tert-Butyl)-4-methylphenoxy)methyl)-6-(4-methylpiperazin-1-yl)-1,3,5-triazin-2-amine], the melting point is 146.5 °C (dec.). Besides, the Ki in series [1] was 10900 nM. Moreover, the Ki in series [2] was found to be 1930 nM. In series [3], this molecule yielded a Ki of 48 nM. This molecule came in with a Ki in series [4] of 2300 nM.
The like results for `Cc1ccc(C(C)C)c(OCCCCCCc2nc(N)nc(N3CCN(C)CC3)n2)c1` [Compound 25, 4-(6-(2-Isopropyl-5-methylphenoxy)hexyl)-6-(4-methylpiperazin-1-yl)-1,3,5-triazin-2-amine] were, in that order, 59 °C (dec.), 1030 nM, 364 nM, 78 nM and 149 nM.
The molecule `CC(C)c1ccccc1OCCCCc1nc(N)nc(N2CCN(C)CC2)n1` [Compound 20, 4-(4-(2-Isopropylphenoxy)butyl)-6-(4-methylpiperazin-1-yl)-1,3,5-triazin-2-amine] gave a melting point of 59 °C. Besides, in series [1], the Ki was 665 nM. The molecule further showed an inhibition constant Ki in series [2] of 677 nM. Also, the inhibitory constant (Ki) in series [3] stood at 43 nM. In series [4], this molecule returned a Ki of 5690 nM.
Taken in the same sequence, the figures for `Cc1cccc(OCCCCCc2nc(N)nc(N3CCN(C)CC3)n2)c1` [Compound 24, 4-(4-Methylpiperazin-1-yl)-6-(5-(m-tolyloxy)pentyl) 1,3,5-triazin-2-amine] were 83 to 85 °C, 1890 nM, 854 nM, 644 nM and 481 nM.
`CC(C)c1cccc(OCc2nc(N)nc(N3CCN(C)CC3)n2)c1` [Compound 4, 4-((3-Isopropylphenoxy)methyl)-6-(4-methylpiperazin-1-yl)-1,3,5-triazin-2-amine]: the melting point lay within 103 to 105 °C. Besides, the affinity in series [1], expressed as Ki, was 5730 nM. In addition, in series [2], affinity was put at a Ki of 2610 nM. The molecule also had a Ki in series [3] of 41 nM. Also, the inhibition constant Ki in series [4] was 1790 nM.
For the molecule `CN1CCN(c2nc(N)nc(COc3ccc(C(C)(C)C)cc3)n2)CC1` [Compound 7, 4-((4-(tert-Butyl)phenoxy)methyl)-6-(4-methylpiperazin-1-yl)-1,3,5-triazin-2-amine], the melting point is 104.4 °C (dec.). The molecule further yielded a Ki in series [1] of 4140 nM. The molecule further yielded a Ki in series [2] of 549 nM. In addition, the Ki in series [3] came out at 150 nM. In series [4], the inhibition constant (Ki) amounted to 3130 nM.
As for `Cc1ccccc1OCCCc1nc(N)nc(N2CCN(C)CC2)n1` [Compound 18, 4-(4-Methylpiperazin-1-yl)-6-(3-(o-tolyloxy)propyl)-1,3,5-triazin-2-amine], the melting point is 83 °C. For the same molecule, the affinity in series [1], expressed as Ki, was 14900 nM. The molecule further showed a Ki in series [2] of 1440 nM. This molecule had an inhibition constant (Ki) in series [3] of 574 nM. Moreover, in series [4], the Ki amounted to 1760 nM.
In the case of `CN1CCN(c2nc(N)nc(COc3ccc(C(C)(C)C)cc3C(C)(C)C)n2)CC1` [Compound 13, 4-((2,4-(di-tert-Butyl)phenoxy)methyl)-6-(4-methylpiperazin-1-yl)-1,3,5-triazin-2-amine hydrochloride], the Ki in series [1] worked out at 8470 nM; in series [2], 760 nM; in series [3], 162 nM; in series [4], 2740 nM.
Regarding `CN1CCN(c2nc(N)nc(COc3c(C(C)(C)C)cccc3C(C)(C)C)n2)CC1` [Compound 12, 4-((2,6-(di-tert-Butyl)phenoxy)methyl)-6-(4-methylpiperazin-1-yl)-1,3,5-triazin-2-amine hydrochloride], the values for the inhibition constant (Ki) in series [1] and in series [3] were 8090 nM and 379 nM, respectively.
Consider `CC(C)c1ccccc1OCCCCCc1nc(N)nc(N2CCN(C)CC2)n1` [Compound 23, 4-(5-(2-Isopropylphenoxy)pentyl)-6-(4-methylpiperazin-1-yl)-1,3,5-triazin-2-amine], for which the melting point was in the range of 63 to 65 °C. Further, the Ki in series [1] stood at 3430 nM. Moreover, in series [2], the Ki came to 597 nM. Moreover, in series [3], the Ki is 189 nM. The molecule further registered an inhibitory constant (Ki) in series [4] of 196 nM.
As to `CN1CCN(c2nc(N)nc(COc3ccc(C(C)(C)C)cc3C(C)(C)C)n2)CC1` (as salt: hydrochloride) [Compound 13, 4-((2,4-(di-tert-Butyl)phenoxy)methyl)-6-(4-methylpiperazin-1-yl)-1,3,5-triazin-2-amine hydrochloride], the melting point fell in the range of 284 to 287 °C.
Regarding `CN1CCN(c2nc(N)nc(COc3cccc(C(C)(C)C)c3)n2)CC1` [Compound 5, 4-((3-(tert-Butyl)phenoxy)methyl)-6-(4-methylpiperazin-1-yl)-1,3,5-triazin-2-amine], the melting point fell in the range of 101.2 to 104.1 °C. In series [1], this molecule yielded an inhibition constant Ki of 15500 nM. In series [2], this molecule had a Ki of 3110 nM. This molecule displayed an inhibitory constant (Ki) in series [3] of 108 nM.
Turning to `CC(C)c1ccccc1OCc1nc(N)nc(N2CCN(C)CC2)n1` [Compound 2, 4-((2-Isopropylphenoxy)methyl)-6-(4-methylpiperazin-1-yl)-1,3,5-triazin-2-amine], the melting point is 140 to 142 °C. The molecule also yielded a Ki in series [1] of 16300 nM. Besides, the Ki in series [2] came out at 1270 nM. In series [3], the affinity corresponds to a Ki of 21 nM and the “decrease in affinity for 5-HT6R compared to MST4” value stood at 2 fold.
`Cc1cccc(OCCCCc2nc(N)nc(N3CCN(C)CC3)n2)c1` [Compound 21, 4-(4-Methylpiperazin-1-yl)-6-(4-(m-tolyloxy)butyl)-1,3,5-triazin-2-amine] yielded a melting point of 99 to 101 °C. Also, in series [1], the affinity, expressed as Ki, was 6250 nM. The same molecule had an inhibition constant (Ki) in series [2] of 952 nM. In series [3], the inhibition constant (Ki) was 559 nM. This molecule showed a Ki in series [4] of 612 nM.
On to `Cc1ccc(C(C)C)c(OCCCCCc2nc(N)nc(N3CCN(C)CC3)n2)c1` [Compound 22, 4-(5-(2-Isopropyl-5-methylphenoxy)pentyl)-6-(4-methylpiperazin-1-yl)-1,3,5-triazin-2-amine], for which the melting point was 75 °C (dec.). The same molecule gave a Ki in series [1] of 771 nM. In addition, in series [2], the Ki was determined as 709 nM. For the same molecule, the inhibitory constant (Ki) in series [3] was 282 nM. Also, the affinity in series [4] corresponds to a Ki of 837 nM.
On to `CC(C)c1ccc(OCc2nc(N)nc(N3CCN(C)CC3)n2)cc1` [Compound 6, 4-((4-Isopropylphenoxy)methyl)-6-(4-methylpiperazin-1-yl)-1,3,5-triazin-2-amine], for which the melting point is 133 to 135 °C. In series [1], this molecule showed an inhibition constant (Ki) of 10100 nM. The molecule further showed a Ki in series [2] of 248 nM. The same molecule yielded an inhibition constant (Ki) in series [3] of 416 nM.
The molecule `Cc1cccc(OCCCc2nc(N)nc(N3CCN(C)CC3)n2)c1` [Compound 17, 4-(4-Methylpiperazin-1-yl)-6-(3-(m-tolyloxy)propyl)-1,3,5-triazin-2-amine] yielded a melting point of 114 to 117 °C. This molecule came in with an inhibition constant (Ki) in series [1] of 30200 nM. For the same molecule, the Ki in series [2] is 3850 nM. The Ki in series [3] was 1460 nM. Moreover, affinity in series [4] was put at a Ki of 2600 nM.
In turn, `CC(C)c1cccc(C(C)C)c1OCc1nc(N)nc(N2CCN(C)CC2)n1` [Compound 11, 4-((2,6-Diisopropylphenoxy)methyl)-6-(4-methylpiperazin-1-yl)-1,3,5-triazin-2-amine] returned a melting point of 160 to 163 °C. This molecule also returned a Ki in series [1] of 33600 nM. Besides, in series [2], the Ki was found to be 7800 nM. For the same molecule, the Ki in series [3] is 825 nM.

These data come from article PMC9919591, “New Triazine Derivatives as Serotonin 5-HT6 Receptor Ligands” (Molecules, 2023).
